SMILES strings stand for the structures. Peptide text beside a SMILES is read from it. * marks the point of attachment. Dansyl = CN(C)c1cccc2c(S(=O)(=O)*)cccc12

The data set is described as follows: Effect of heparin-binding peptides on cellular viability (CellTiter 96 AQueous colorimetric metabolic assay). The note with it: mouse, 3T3 fibroblasts.

Method: 3T3 fibroblasts were incubated with various doses of W-PBD1 () and dG-PBD1 (▪) peptide (n=3). Viability was measured using a colorimetric metabolic assay based on the reduction of a tetrazolium salt into a formazan product.
In one example to show toxicity of two heparin binding peptides, 3T3 fibroblasts were treated with various concentrations of two different heparin binding peptides. Cell viability was assessed using the CellTiter 96® AQueous reagent (Promega, Madison, Wis.) after 1 hour at 37° C. in a humidified incubator with 5% CO2, following the manufacturer's protocol, incorporated by reference herein. Briefly, 3T3 fibroblasts were cultured at 37° C. in a humidified incubator with 5% CO2 using Dulbecco's modified Eagle Medium (DMEM) containing 10% fetal bovine serume (FBS), pen/strep, and 2 mM glutamine (Invitrogen). Serial dilutions of dG-PGB1 and W-PBD-1 using PBS as the diluent, and 75 μl of the dilutions were transferred in triplicate into the wells of a 96-well microtiter plate. […] Finally, the absorbance at 490 mm was measured with a microplate spectrophotometer. […] The amount of viable cells was determined by subtracting the absorbance readings of media containing blank wells from every other well and comparing the ratio of the absorbance reading for each sample with that of the positive control.

By CC50 is commonly meant the concentration at which the toxic effect on the cells reaches its halfway point. Regarding `CC(C)C[C@H](NC(=O)[C@H](CCCCN)NC(=O)[C@H](C)NC(=O)[C@H](Cc1ccccc1)NC(=O)[C@H](C)NC(=O)[C@H](CCCCN)NC(=O)CNS(=O)(=O)c1cccc2c(N(C)C)cccc12)C(=O)N[C@@H](C)C(=O)N[C@@H](C)C(=O)N[C@@H](CCCNC(=N)N)C(=O)N[C@@H](CC(C)C)C(=O)N[C@@H](Cc1ccc(O)cc1)C(=O)N[C@@H](CCCNC(=N)N)C(=O)N[C@@H](CCCCN)C(=O)N[C@@H](C)C(=O)NCC(=O)N[C@@H](CS)C(=O)O` [dG-PBD1, dansyl-GKAFAKLAARLYRKAGC] (Dansyl-GKAFAKLAARLYRKAGC-OH), it took 19.3 ± 1.1 µM to reach half-maximal cytotoxicity (CC50 at 1 h).
Molecule `CC(C)C[C@H](NC(=O)[C@H](CCCCN)NC(=O)[C@H](C)NC(=O)[C@H](Cc1ccccc1)NC(=O)[C@H](C)NC(=O)[C@H](CCCCN)NC(=O)[C@@H](N)Cc1c[nH]c2ccccc12)C(=O)N[C@@H](C)C(=O)N[C@@H](C)C(=O)N[C@@H](CCCNC(=N)N)C(=O)N[C@@H](CC(C)C)C(=O)N[C@@H](Cc1ccc(O)cc1)C(=O)N[C@@H](CCCNC(=N)N)C(=O)N[C@@H](CCCCN)C(=O)N[C@@H](C)C(=O)NCC(=O)N[C@@H](CS)C(=O)O` [W-PBD1, WKAFAKLAARLYRKAGC] (H-WKAFAKLAARLYRKAGC-OH; N-terminus and C-terminus assumed) showed a CC50 at 1 h of 58.1 ± 7.3 µM.

The record behind these values is patent US20090269406A1, “Therapeutic uses of biocompatible biogel compositions” (priority 2008, published 2009).
